Values after ≈ are worked out from the molar mass of the structure shown.
Experiments:
[1] = system: RPMI8226 (multiple myeloma); experiment: MTT multiple myeloma cell growth inhibition, 72 h; assay type: cell-based, human; conditions: Homo sapiens, RPMI-8226, RPMI8226, 72 h; for IC50: read-out: IC50; for IC90: read-out: IC90
Experimental: Multiple myeloma and lymphoma cell lines: RPMI8226 (multiple myeloma), purchased from Fuxiang Bio-tech Co. Ltd., Shanghai, China.
(§1) Obtaining 6000 well-growing leukemia cells and inoculating them into wells of a 96-well cell culture plate. The culture medium is the 1640 cell culture medium containing 10% fetal bovine serum. After adding the homoharringtonine derivatives of different concentrations and mixing uniformly, placing the plate in a carbon dioxide cell incubator (5% CO2) at 37° C. and incubating for 72 hours. Then the viable cell concentration is determined by the MTT method.

[2] = system: K562/adr (drug-resistant, chronic myeloid leukemia, CML); experiment: MTT leukemia cell growth inhibition, 72 h; assay type: cell-based, human; conditions: Homo sapiens, K562/Adr; for IC50: read-out: IC50; for IC90: read-out: IC90
Excerpt: (§2) Leukemia cell lines: K562/adr (drug-resistant, chronic myeloid leukemia, CML), NB4 (acute promyelocytic leukemia, AML), Kasumi-1 (acute myeloid leukemia M2 type, AML-M2), Jurkat (acute lymphoblastic leukemia, ALL), all of which are donated by Cancer Research Institute of Zhejiang University, China; and H9 (acute lymphoblastic leukemia, ALL), which is purchased from China Center for Type Culture Collection.
as §1, with “method. In this experiment, the cell viability in control group (not treated with any compound) is set as 100%.” for “method.”

[3] = system: H9 (acute lymphoblastic leukemia, ALL); experiment: MTT leukemia cell growth inhibition, 72 h; assay type: cell-based, human; conditions: Homo sapiens, H9, 72 h; for IC50: read-out: IC50; for IC90: read-out: IC90
Excerpt: as §2
as §1, with “method. In this experiment, the cell viability in control group (not treated with any compound) is set as 100%.” for “method.”

[4] = system: NB4 (acute promyelocytic leukemia, AML); experiment: MTT leukemia cell growth inhibition, 72 h; assay type: cell-based, human; conditions: Homo sapiens, NB4, 72 h; for IC50: read-out: IC50; for IC90: read-out: IC90
Excerpt: as §2
as §1, with “method. In this experiment, the cell viability in control group (not treated with any compound) is set as 100%.” for “method.”

[5] = system: Kasumi-1 (acute myeloid leukemia M2 type, AML-M2); experiment: MTT leukemia cell growth inhibition, 72 h; assay type: cell-based, human; conditions: Homo sapiens, Kasumi-1, 72 h; for IC50: read-out: IC50; for IC90: read-out: IC90
Excerpt: as §2
as §1, with “method. In this experiment, the cell viability in control group (not treated with any compound) is set as 100%.” for “method.”

[6] = system: Jurkat (acute lymphoblastic leukemia, ALL); experiment: MTT leukemia cell growth inhibition, 72 h; assay type: cell-based, human; conditions: Homo sapiens; for IC50: read-out: IC50; for IC90: read-out: IC90
Excerpt: as §2
as §1, with “method. In this experiment, the cell viability in control group (not treated with any compound) is set as 100%.” for “method.”

[7] = system: Huh7 (human liver cancer cell); experiment: MTT solid tumor cell growth inhibition, 72 h; assay type: cell-based; conditions: Homo sapiens, Huh-7, Huh7, 72 h; for IC50: read-out: IC50; for IC90: read-out: IC90
Experimental: (§3) Human solid tumor cell lines: Hep-2 ([…]), A549 (human lung cancer), CaES-17 (esophageal cancer cell), PC-3 (prostate cancer), CNE (nasopharyngeal carcinoma cell), and SK-OV-3 (ovarian cancer cell), all of which are purchased from China Center For Type Culture Collection; RKO (human colon adenocarcinoma cell), MGC 803 (human gastric cancer cell), MG63 (osteosarcoma) and U87 MG (malignant glioma cell), all of which are purchased from Fuxiang Bio-tech Co. Ltd., Shanghai, China; PANC-1 (pancreatic cancer), Huh7 (human liver cancer cell), Becap37 (human breast cancer cell), and Hela (human cervical cancer cell), all of which are donated by Cancer Research Institute of Zhejiang University, China.
(§4) Obtaining 4000 well-growing human solid tumor cells and inoculating them into wells of a 96-well cell culture plate. The culture medium is DMEM High Glucose cell culture medium containing 10% fetal bovine serum. The plate is placed in a carbon dioxide cell incubator (5% CO2) at 37° C. and incubating for 24 hours. After adding the homoharringtonine derivatives of different concentration and mixing uniformly, the plate is placed in a carbon dioxide cell incubator (5% CO2) at 37° C. and incubating for 72 hours. Then the viable cell concentration is determined by the MTT method and the cell viability (%) after drug treatment is calculated. In this experiment, the cell viability of control group (not treated with any compound) is set as 100%.

[8] = system: MGC 803 (human gastric cancer cell); experiment: MTT solid tumor cell growth inhibition, 72 h; assay type: cell-based; conditions: Homo sapiens, MGC 803, 72 h; for IC50: read-out: IC50; for IC90: read-out: IC90
Experimental: as §3, §4

[9] = system: Becap37 (human breast cancer cell); experiment: MTT solid tumor cell growth inhibition, 72 h; assay type: cell-based; conditions: Homo sapiens, Becap37, 72 h; for IC50: read-out: IC50; for IC90: read-out: IC90
Experimental: as §3, §4

A549 (human lung cancer) = experiment: MTT solid tumor cell growth inhibition, 72 h; assay type: cell-based; conditions: Homo sapiens, A549, 72 h; for IC50: read-out: IC50; for IC90: read-out: IC90
Experimental: as §3, §4

MG63 (osteosarcoma) = experiment: MTT solid tumor cell growth inhibition, 72 h; assay type: cell-based, human; conditions: Homo sapiens, MG 63, 72 h; for IC50: read-out: IC50; for IC90: read-out: IC90
Experimental: as §3, §4

[10] = system: PANC-1 (pancreatic cancer); experiment: MTT solid tumor cell growth inhibition, 72 h; assay type: cell-based, human; conditions: Homo sapiens, PANC-1, 72 h; for IC50: read-out: IC50; for IC90: read-out: IC90
Experimental: as §3, §4

Compound	IC50 [1] [µg/mL]	IC90 [1] [µg/mL]	IC50 [2] [µg/mL]	IC90 [2] [µg/mL]	IC50 [3] [µg/mL]	IC90 [3] [µg/mL]	IC50 [4] [µg/mL]	IC90 [4] [µg/mL]	IC50 [5] [µg/mL]	IC90 [5] [µg/mL]	IC50 [6] [µg/mL]	IC90 [6] [µg/mL]	IC50 [7] [µg/mL]	IC90 [7] [µg/mL]	IC50 [9] [µg/mL]	IC90 [9] [µg/mL]	IC50 (A549 (human lung cancer)) [µg/mL]	IC90 (A549 (human lung cancer)) [µg/mL]	IC50 (MG63 (osteosarcoma)) [µg/mL]	IC90 (MG63 (osteosarcoma)) [µg/mL]	other results
COC1=C[C@]23CCCN2CCc2cc4c(cc2[C@@H]3[C@@H]1OC(=O)[C@@](O)(CCCC(C)(C)O)CC(=O)N1CCCCC1)OCO4 [BS-HH-051]	1.7 (≈ 2.84 µM)	16 (≈ 26.7 µM)	> 16	> 16	7.26 (≈ 12.1 µM)	> 16	1.5 (≈ 2.51 µM)	16 (≈ 26.7 µM)	2 (≈ 3.34 µM)	16 (≈ 26.7 µM)	1.3 (≈ 2.17 µM)	> 16	> 16	> 16	1.99 (≈ 3.32 µM)	> 16	6.96 (≈ 11.6 µM)	> 16	2.72 (≈ 4.54 µM)	> 16	IC50 [8]: 1.9 µg/mL (≈ 3.17 µM); IC90 [8]: 26.7 µg/mL (≈ 44.6 µM); IC50 [10]: 6.84 µg/mL (≈ 11.4 µM); IC90 [10]: > 16 µg/mL
COC1=C[C@]23CCCN2CCc2cc4c(cc2[C@@H]3[C@@H]1OC(=O)[C@@](O)(CCCC(C)(C)O)CC(=O)N1CCCC(C)C1)OCO4 (stereo partly shown) [BS-HH-038]	1.22 (≈ 1.99 µM)	16 (≈ 26.1 µM)	> 16	> 16	7.37 (≈ 12 µM)	> 16	0.32 (≈ 0.522 µM)	4.24 (≈ 6.92 µM)	2 (≈ 3.26 µM)	12 (≈ 19.6 µM)	1.47 (≈ 2.4 µM)	16 (≈ 26.1 µM)	16 (≈ 26.1 µM)	> 16	1.95 (≈ 3.18 µM)	> 16	5.72 (≈ 9.33 µM)	> 16	3.71 (≈ 6.05 µM)	> 16	IC50 [10]: 8.83 µg/mL (≈ 14.4 µM); IC90 [10]: > 16 µg/mL
COCCCNC(=O)C[C@](O)(CCCC(C)(C)O)C(=O)O[C@@H]1C(OC)=C[C@]23CCCN2CCc2cc4c(cc2[C@H]13)OCO4 [BS-HH-028]	4.92 (≈ 8.16 µM)	> 16	> 16	> 16	6.52 (≈ 10.8 µM)	> 16	2.59 (≈ 4.3 µM)	7.52 (≈ 12.5 µM)	2.75 (≈ 4.56 µM)	13 (≈ 21.6 µM)	3.56 (≈ 5.91 µM)	15 (≈ 25 µM)	5.93 (≈ 9.84 µM)	> 16	13.1 (≈ 21.8 µM)	> 16	16 (≈ 26.5 µM)	> 16	6.8 (≈ 11.3 µM)	> 16	IC50 [8]: 8.62 µg/mL (≈ 14.3 µM); IC90 [8]: 24.3 µg/mL (≈ 40.4 µM); IC50 [10]: 16 µg/mL (≈ 26.5 µM); IC90 [10]: > 16 µg/mL
COC1=C[C@]23CCCN2CCc2cc4c(cc2[C@@H]3[C@@H]1OC(=O)[C@@](O)(CCCC(C)(C)O)CC(=O)NCc1ccco1)OCO4 [BS-HH-043]	> 16	> 16	> 16	> 16	> 16	> 16	15 (≈ 24.6 µM)	> 16	11.1 (≈ 18.1 µM)	> 16	13 (≈ 21.3 µM)	> 16	> 16	> 16	> 16	> 16	> 16	> 16	> 16	> 16	IC50 [8]: > 16 µg/mL; IC90 [8]: > 16 µg/mL; IC50 [10]: > 16 µg/mL; IC90 [10]: > 16 µg/mL

Source: US9676789B2, “Aminated derivative of homoharringtonine, preparation method therefor, and application thereof” (HANGZHOU BENSHENG PHARMACEUTICAL CO., LTD., priority 2011, dated 2017)
